From publication PMC8778818, “Synthesis, Structural Characterization and Anticancer Activity of New 5-Trifluoromethyl-2-thioxo-thiazolo[4,5-d]pyrimidine Derivatives” (Pharmaceuticals, 2022)
“Also recorded” adds a separate entry of the source.

Legend:
OVCAR-8 = assay: NCI-60 screen, Ovarian Cancer OVCAR-8; type: cell-based, human; conditions: OVCAR-8, 10^−5 M one dose
CCRF-CEM = assay: NCI-60 screen, Leukemia CCRF-CEM; type: cell-based, human; conditions: 10^−5 M one dose
MCF7 = assay: NCI-60 screen, Breast Cancer MCF7; type: cell-based, human; conditions: MCF7, 10^−5 M one dose
NCI-H226 = assay: NCI-60 screen, Non-Small Cell Lung Cancer NCI-H226; type: cell-based, human; conditions: NCI-H226, 10^−5 M one dose
NCI/ADR-RES = assay: NCI-60 screen, Ovarian Cancer NCI/ADR-RES; type: cell-based, human; conditions: 10^−5 M one dose
OVCAR-3 = assay: NCI-60 screen, Ovarian Cancer OVCAR-3; type: cell-based, human; conditions: OVCAR-3, 10^−5 M one dose
CAKI-1 = assay: NCI-60 screen, Renal Cancer CAKI-1; type: cell-based, human; conditions: CAKI-1, 10^−5 M one dose
OVCAR-4 = assay: NCI-60 screen, Ovarian Cancer OVCAR-4; type: cell-based, human; conditions: OVCAR-4, 10^−5 M one dose
A549/ATCC = assay: NCI-60 screen, Non-Small Cell Lung Cancer A549/ATCC; type: cell-based, human; conditions: 10^−5 M one dose
SF-539 = assay: NCI-60 screen, CNS Cancer SF-539; type: cell-based, human; conditions: SF-539, 10^−5 M one dose
SW620 = assay: NCI-60 screen, Colon Cancer SW620; type: cell-based, human; conditions: SW620, 10^−5 M one dose
HOP-92 = assay: NCI-60 screen, Non-Small Cell Lung Cancer HOP-92; type: cell-based, human; conditions: HOP-92, 10^−5 M one dose
MCF-7/WT = assay: MTT cell viability assay, MCF-7/WT; type: cell-based; conditions: Homo sapiens, MCF7, 72 h, mean ± SD
Protocol: Twelve compounds (2a-e, 3a-d and 4a-c) at a concentration range of 50–5000 μM were tested for their antiproliferative potential against four human cancer cell lines (A375—melanotic melanoma, C32—amelanotic melanoma, DU145—prostate cancer androgen-independent, MCF-7/WT—breast adenocarcinoma) and two normal cell lines: Chinese Hamster Ovary (CHO-K1) and immortalized human keratinocytes from histologically normal skin (HaCaT).
To determine the antiproliferative activity of newly synthesized compounds, the following cell lines were used: human melanotic melanoma cell line (A375), human amelanotic melanoma cell line (C32), human breast adenocarcinoma cell line (MCF-7/WT), human prostate cancer androgen-independent (DU145) and two normal cell lines: hamster ovarian (CHO-K1) and immortalized human keratinocytes from histologically normal skin (HaCaT). The cells were obtained from the cell line bank of the Department of Molecular and Cellular Biology, Wroclaw Medical University. A375, C32, MCF-7/WT, DU145 and HaCaT cells were grown in a monolayer cultured in Dulbecco’s Modified Eagle’s Medium (DMEM, Sigma-Aldrich, Poznań, Poland), supplemented with 10% of fetal bovine serum (FBS, Gibco, Paisley, UK) and 1% of antibiotics (penicillin/streptomycin, Sigma-Aldrich) and CHO-K1 were grown in HAM’s F-12 medium (Sigma-Aldrich), supplemented with 10% fetal bovine serum (FBS, Gibco) and 1% of antibiotics (penicillin/streptomycin, Sigma-Aldrich). Cell lines were cultured in the polystyrene flasks 25 or 75 cm^2 (Thermo Fisher Scientific, Waltham, MA, USA), which were stored in 37 °C and 5% CO2 in a humidified 95% atmosphere (SteriCult, Thermo Scientific, Alab). The cell medium was exchanged twice a week. The exponentially growing cells were used throughout the experiments. The cells were rinsed with phosphate-buffered saline (PBS, Sigma-Aldrich) and trypsinized by Trypsin-EDTA 0.25% solution (Sigma-Aldrich).
The influence of the compounds was performed in a monolayer culture on cancer and normal cells. Compounds were initially dissolved in DMSO; further dilutions of the compound were performed in Dulbecco’s Modified Eagle’s Medium supplemented with 10% FBS. Compounds were tested in a 50–5000 µM concentration range. In the in vitro experiments, the concentrations of DMSO in the final solution of the compounds were used 0.05%; 0.1%; 0.5%; 1%, respectively.
Cell viability was determined using the MTT colorimetric assay. All cell lines were seeded into 96-well plates to a density of 3 × 10^4 cells/well. After 24 h, the culture supernatants were removed and appropriate dilutions of compounds in the culture medium (200 µL/well) were added to the cells’ monolayer cultures and incubated for an additional 72 h. After 72 h of exposition to the compounds and the removal of the culture medium, cell viability was determined by reducing the yellow dye 3-(4,5-dimethyl-2-thiazol)-2,5-diphenyl-2H-tetrazolium bromide (MTT assay, Sigma Saint Louis, MO, USA; In Vitro Toxicology Assay) to a blue formazan product. The absorbance of the resulting solutions in three duplicate experiments was measured at the wavelength of 560 nm in a microplate reader (EnSpire, Perkin Elmer, Kraków, Poland). MTT assay is a colorimetric method that estimates the rate of metabolism in viable cells. Absorbance is directly proportional to the number of viable cells. All the experiments were performed three times and the mean absorbance values were calculated. The methodology for the evaluation of the growth of human cancer and normal cells was described previously. The cell viability in each group was expressed as a percentage of control (untreated) cells.

KM12 = assay: NCI-60 screen, Colon Cancer KM12; type: cell-based, human; conditions: KM12, 10^−5 M one dose
DU-145 = assay: NCI-60 screen, Prostate C. DU-145; type: cell-based; conditions: DU-145, 10^−5 M one dose
HS 578T = assay: NCI-60 screen, Breast Cancer HS 578T; type: cell-based, human; conditions: 10^−5 M one dose
HCT-15 = assay: NCI-60 screen, Colon Cancer HCT-15; type: cell-based; conditions: HCT-15, 10^−5 M one dose
[1] = tested on: 60 human cancer cell lines; assay: NCI-60 anticancer screen, full panel; type: cell-based; conditions: 10^−5 M one dose; for Mean Growth %: mean over the panel
LOX IMVI = assay: NCI-60 screen, Melanoma LOX IMVI; type: cell-based, human; conditions: 10^−5 M one dose
IGROV1 = assay: NCI-60 screen, Ovarian Cancer IGROV1; type: cell-based; conditions: IGROV1, 10^−5 M one dose
MDA-MB-231/ATCC = assay: NCI-60 screen, Breast Cancer MDA-MB-231/ATCC; type: cell-based; conditions: MDA-MB-231/ATCC, 10^−5 M one dose

Structure (SMILES) | Growth of Cells (%) (OVCAR-8) | Growth of Cells (%) (MCF7) | Growth of Cells (%) (NCI-H226) | Growth of Cells (%) (NCI/ADR-RES) | Growth of Cells (%) (OVCAR-3) | Growth of Cells (%) (CAKI-1) | Growth of Cells (%) (OVCAR-4) | Growth of Cells (%) (A549/ATCC) | Growth of Cells (%) (SF-539) | Growth of Cells (%) (SW620) | IC50 (MCF-7/WT) [µM] | Growth of Cells (%) (KM12) | Growth of Cells (%) (DU-145) | Growth of Cells (%) (HS 578T) | Growth of Cells (%) (HCT-15) | activity in the one-dose assay (in words) [1] | Mean Growth % [1] [%] | Growth of Cells (%) (LOX IMVI) | Growth of Cells (%) (IGROV1) | Growth of Cells (%) (MDA-MB-231/ATCC) | also measured
O=c1[nH]c(C(F)(F)F)nc2c1sc(=S)n2-c1ccccc1 [Compound 2b, 3-phenyl-2-thioxo-5-(trifluoromethyl)-2,3-dihydro[1, 3]thiazolo[4,5-d]pyrimidin-7(6H)-one] | 103.45 | 111.19 | 103.60 | 25.77 | 110.35 | 124.11 | 117.19 | 103.88 | 114.10 | 95.09 | 557 ± 22.9 | 100.96 | 109.40 | 65.01 | 106.95 | insufficient activity | 103.88 | 84.58 | −5.14 | 107.13 | Growth of Cells (%) (CCRF-CEM): 96.48%; Growth of Cells (%) (HOP-92): 97.54%
CCNc1nc(C(F)(F)F)nc2c1sc(=S)n2-c1ccccc1 [Compound 4b, 7-(ethylamino)-3-phenyl-5-(trifluoromethyl)[1, 3]thiazolo[4,5-d]pyrimidine-2(3H)-thione] | 96.11 | 96.38 | 88.51 | 92.88 | 106.99 | 93.63 | 98.24 | 74.36 | 100.98 | 106.24 | 686 ± 29.3 | 89.17 | 101.28 | 106.83 | 94.67 | insufficient activity; also recorded: inactive | 96.94 | 88.57 | 101.57 | 85.06 | –
